Data: US20240115572A1, “METHODS FOR TREATING GLIOBLASTOMAS WITH SEPIAPTERIN” (priority 2021, published 2024)

Tests used:
[1] = system: Orthotopic glioblastoma tumors, nude (U87) mouse model; assay: Survival of nude mice with orthotopic U87 glioblastoma tumors, sepiapterin plus radiation; format: in vivo
Protocol: Orthotopic glioblastoma tumors were established in nude (U87) and syngeneic (GL261) mouse models on Day 0 (N=13/group). Starting on Day 6 in the U87 mouse model, sepiapterin (SP) was orally administered for either 6 days (10 mg/kg sepiapterin) or daily (1 mg/kg sepiapterin) until end of experiment (60 days). Starting on Day 6 in the GL261 mouse model, SP was orally administered daily (10 mg/kg) until the end of experiment (60 days). Radiation (IR) (5 fxs of 2 Gy) with 3D treatment planning and delivery was started on Day 13, ending on Day 17.

[2] = system: adult female C57BL/6J mice; assay: Novel object recognition (NOR) test after brain irradiation; format: in vivo, mouse
From the text: The novel object recognition test is a behavioral test in which a mouse is allowed to explore two similar objects during the first (training) session, and then after a certain length of time, one of the two training objects is replaced by a new object during a later (test) session. Because mice have an innate preference for novelty, if the mouse recognizes the familiar object, it will spend most of its time at the novel object. The amount of time taken to explore the new object provides a measure of recognition memory. 24 adult female C57BL/6J mice were treated as follows: (1) 8 mice were irradiated (IR) with 10 Gy total dose, divided into three fractions with a “rest” day in between fractions, covering about a 1 mm square over the center of the head; (2) 8 mice were similarly irradiated, and also treated with 10 mg/kg/day sepiapterin (SP), administered as oral gavage, starting on day 1 of IR to 6 days beyond last radiation fraction (i.e. 11 days total); (3) 8 mice were untreated naïve. 1 month following treatment, mice were tested in the novel object recognition (NOR) task with an hour inter-trial interval (ITI) to assess hippocampal mediated memory (i.e. the test occurred one hour after training). In both training and test phases, time investigating objects was measured for 5 minutes. Two independent observers were used to evaluate. The Discrimination Index=(novel−familiar)/(novel+familiar).

Orthotopic GL261 tumors = assay: Survival of mice with orthotopic GL261 tumors, temozolomide with or without sepiapterin; format: in vivo, mouse; settings: 10 mg/kg SP orally from day 7 until end of study + 60 mg/kg TMZ for 5 days
Protocol: Orthotopic GL261 tumors were established on Day 0. Starting on Day 7 mice were treated with 60 mg/kg temozolomide (TMZ) for 5 days+/−10 mg/kg SP given orally from day 7 until the end of the study. […] Future animal studies will combine with fractionated radiotherapy.

C[C@H](O)C(=O)C1=Nc2c(nc(N)[nH]c2=O)NC1 [sepiapterin, (S)-2-amino-6-(2-hydroxypropanoyl)-7,8-dihydropteridin-4(3H)-one]
Survival vs control group ([1]; 1 mg/kg oral continuously (daily from Day 6 to day 60) + IR, vs control): significantly different
Survival vs all other groups (Control, IR alone, and 10 mg/kg for 6d) ([1]; 1 mg/kg oral continuously + IR): significantly different from all other groups
Survival vs control group ([1]; 10 mg/kg oral for 6d from Day 6 + IR (5 fxs of 2 Gy, Day 13-17), vs control (no IR or SP)): significantly different
Survival vs IR alone group ([1]; 10 mg/kg oral for 6d from Day 6 + IR, vs IR alone): did not achieve statistical significance
Discrimination Index compared with irradiated-only group ([2]; 10 Gy IR in three fractions + 10 mg/kg/day oral gavage for 11 days, NOR 1 month after treatment, 1 h ITI): increased
NOR Discrimination Index, Mean ([2]; IR 10 Gy + 10 mg/kg/day sepiapterin, N=8, 1 month after treatment, (novel−familiar)/(novel+familiar)): 0.262
Diff of Means of Discrimination Index, IR + drug vs. IR ([2]; Tukey test, P 0.331, P < 0.050: No): 0.135
Diff of Means of Discrimination Index, Naïve vs. IR + drug ([2]; Tukey test, P 0.475, P < 0.050: No): 0.110
Survival vs TMZ alone (Orthotopic GL261 tumors): improved survival
